Experimental data as given in ChEMBL document CHEMBL1149764, “Synthesis, structure and biological activity of pseudopeptidic macrolides based on an amino alcohol” (Eur J Med Chem, 2008).
Converted amounts (≈) assume the structure as drawn.

Legend:
Pseudomonas aeruginosa = assay: Antibacterial activity against Pseudomonas aeruginosa ATCC 27853 after 24 hrs by twofold dilution method; assay type: functional; settings: ATCC 27853, 24 h
Escherichia coli = assay: Antibacterial activity against Escherichia coli ATCC 25922 after 24 hrs by twofold dilution method; assay type: functional; settings: ATCC 25922, 24 h
[1] = Antifungal activity against […] nigricans SYM 2417 after 48 hrs standard broth microdilution method; assay type: functional
[2] = Toxicity against human erythrocytes assessed as hemolytic activity at 500 ug/ml; assay type: cell-based, Erythrocyte; settings: read-out: Activity
[3] = Toxicity against human erythrocytes assessed as hemolytic activity at 250 ug/ml; assay type: cell-based, Erythrocyte; settings: read-out: Activity
[4] = Toxicity against human erythrocytes assessed as hemolytic activity at 2000 ug/ml; assay type: cell-based, Erythrocyte; settings: read-out: Activity
Candida albicans = assay: Antifungal activity against Candida albicans ATCC 10231 after 48 hrs standard broth microdilution method; assay type: functional; settings: ATCC 10231, 48 h
Aspergillus niger = assay: Antifungal activity against Aspergillus niger ATCC 16404 after 48 hrs standard broth microdilution method; assay type: functional; settings: ATCC 16404, 48 h
Cryptococcus neoformans = assay: Antifungal activity against Cryptococcus neoformans SYM 523 after 48 hrs standard broth microdilution method; assay type: functional
[5] = Antifungal activity against […] glutinis SYM 2209 after 48 hrs standard broth microdilution method; assay type: functional
Bacillus subtilis = assay: Antibacterial activity against Bacillus subtilis ATCC 6633 after 24 hrs by twofold dilution method; assay type: functional; settings: ATCC 6633, 24 h
Staphylococcus aureus = assay: Antibacterial activity against Staphylococcus aureus ATCC 25923 after 24 hrs by twofold dilution method; assay type: functional; settings: ATCC 25923, 24 h
Saccharomyces cerevisiae = assay: Antifungal activity against Saccharomyces cerevisiae SYM 3513 after 48 hrs standard broth microdilution method; assay type: functional
[6] = Toxicity against human erythrocytes assessed as hemolytic activity at 4000 ug/ml; assay type: cell-based, Erythrocyte; settings: read-out: Activity
[7] = Toxicity against human erythrocytes assessed as hemolytic activity at 1000 ug/ml; assay type: cell-based, Erythrocyte; settings: read-out: Activity
Aspergillus flavus = assay: Antifungal activity against Aspergillus flavus SYM 223 after 48 hrs standard broth microdilution method; assay type: functional

Work on `O=C1N[C@@H]2c3ccccc3C[C@@H]2OC(=O)c2cccc(c2)C(=O)O[C@H]2Cc3ccccc3[C@H]2NC(=O)c2cccc1c2` yielded an MIC (Pseudomonas aeruginosa) of over 64 µg/mL, an MIC (Escherichia coli) of 16 µg/mL (≈ 28.6 µM) and an MIC [1] of 1 µg/mL (≈ 1.79 µM). For the same compound, the hemolysis at 500 ug/ml [2] was 0%, the hemolysis at 250 ug/ml [3] was 0% and the hemolysis at 2000 ug/ml [4] was 0.5%. For the same compound, the MIC (Candida albicans) was 1 µg/mL (≈ 1.79 µM), the MIC (Aspergillus niger) was 8 µg/mL (≈ 14.3 µM) and the MIC (Cryptococcus neoformans) was 4 µg/mL (≈ 7.16 µM). It also gave an MIC [5] of 4 µg/mL (≈ 7.16 µM), an MIC (Bacillus subtilis) of 8 µg/mL (≈ 14.3 µM) and an MIC (Staphylococcus aureus) of 4 µg/mL (≈ 7.16 µM). The MIC (Saccharomyces cerevisiae) was 32 µg/mL (≈ 57.3 µM), the hemolysis at 4000 ug/ml [6] was 2% and the hemolysis at 1000 ug/ml [7] was 0%. The MIC (Aspergillus flavus) was 2 µg/mL (≈ 3.58 µM).
`OC(Cn1cncn1)(Cn1cncn1)c1ccc(F)cc1F` [FLUCONAZOLE] gave an MIC (Candida albicans) of 16 µg/mL (≈ 52.2 µM), an MIC (Aspergillus niger) of 64 µg/mL (≈ 209 µM) and an MIC (Cryptococcus neoformans) of 32 µg/mL (≈ 104 µM). It also gave an MIC [5] of over 64 µg/mL, an MIC (Saccharomyces cerevisiae) of 32 µg/mL (≈ 104 µM) and an MIC (Aspergillus flavus) of 64 µg/mL (≈ 209 µM).
`C[C@@H]1[C@H](O)[C@@H](C)/C=C/C=C/C=C/C=C/C=C/C=C/C=C/[C@H](O[C@@H]2O[C@H](C)[C@@H](O)[C@H](N)[C@@H]2O)C[C@@H]2O[C@](O)(C[C@@H](O)C[C@@H](O)[C@H](O)CC[C@@H](O)C[C@@H](O)CC(=O)O[C@H]1C)C[C@H](O)[C@H]2C(=O)O` [AMPHOTERICIN B] gave an MIC (Candida albicans) of 1 µg/mL (≈ 1.08 µM), an MIC (Aspergillus niger) of 1 µg/mL (≈ 1.08 µM) and an MIC [5] of 2 µg/mL (≈ 2.16 µM). The MIC (Saccharomyces cerevisiae) was 0.5 µg/mL (≈ 0.541 µM) and the MIC (Aspergillus flavus) was 0.5 µg/mL (≈ 0.541 µM).
For `O=C1O[C@H]2Cc3ccccc3[C@H]2NC(=O)c2cccc(n2)C(=O)N[C@@H]2c3ccccc3C[C@@H]2OC(=O)C2=CC=C1S2`, the MIC (Pseudomonas aeruginosa) was over 64 µg/mL, the MIC (Escherichia coli) was over 64 µg/mL and the MIC [1] was 1 µg/mL (≈ 1.77 µM). For the same compound, the hemolysis at 500 ug/ml [2] was 1%, the hemolysis at 250 ug/ml [3] was 0.5% and the hemolysis at 2000 ug/ml [4] was 6%. The MIC (Candida albicans) was 1 µg/mL (≈ 1.77 µM), the MIC (Aspergillus niger) was 4 µg/mL (≈ 7.07 µM) and the MIC (Cryptococcus neoformans) was 4 µg/mL (≈ 7.07 µM). For the same compound, the MIC [5] was 4 µg/mL (≈ 7.07 µM), the MIC (Bacillus subtilis) was over 64 µg/mL and the MIC (Staphylococcus aureus) was 8 µg/mL (≈ 14.1 µM). The MIC (Saccharomyces cerevisiae) was 8 µg/mL (≈ 14.1 µM), the hemolysis at 4000 ug/ml [6] was 14% and the hemolysis at 1000 ug/ml [7] was 4%. It also gave an MIC (Aspergillus flavus) of 1 µg/mL (≈ 1.77 µM).
Compound `O=C1N[C@@H]2c3ccccc3C[C@@H]2OC(=O)c2cccc(n2)C(=O)O[C@H]2Cc3ccccc3[C@H]2NC(=O)c2cccc1c2` has an MIC (Pseudomonas aeruginosa) of over 64 µg/mL, an MIC (Escherichia coli) of 32 µg/mL (≈ 57.2 µM) and an MIC [1] of 4 µg/mL (≈ 7.15 µM). For the same compound, the hemolysis at 500 ug/ml [2] was 0%, the hemolysis at 250 ug/ml [3] was 0% and the hemolysis at 2000 ug/ml [4] was 4%. It also gave an MIC (Candida albicans) of 4 µg/mL (≈ 7.15 µM), an MIC (Aspergillus niger) of 8 µg/mL (≈ 14.3 µM) and an MIC (Cryptococcus neoformans) of 16 µg/mL (≈ 28.6 µM). It also gave an MIC [5] of 8 µg/mL (≈ 14.3 µM), an MIC (Bacillus subtilis) of over 64 µg/mL and an MIC (Staphylococcus aureus) of 16 µg/mL (≈ 28.6 µM). The MIC (Saccharomyces cerevisiae) was 32 µg/mL (≈ 57.2 µM), the hemolysis at 4000 ug/ml [6] was 7% and the hemolysis at 1000 ug/ml [7] was 2%. The MIC (Aspergillus flavus) was 2 µg/mL (≈ 3.57 µM).
Compound `O=C(N[C@H](CO)[C@H](O)c1ccc([N+](=O)[O-])cc1)C(Cl)Cl` [CHLORAMPHENICOL] has an MIC (Pseudomonas aeruginosa) of 32 µg/mL (≈ 99 µM), an MIC (Escherichia coli) of 8 µg/mL (≈ 24.8 µM) and an MIC (Bacillus subtilis) of 8 µg/mL (≈ 24.8 µM). The MIC (Staphylococcus aureus) was 4 µg/mL (≈ 12.4 µM).
`O=C1O[C@H]2Cc3ccccc3[C@H]2NC(=O)c2cccc(n2)C(=O)N[C@@H]2c3ccccc3C[C@@H]2OC(=O)c2cccc1c2` showed an MIC (Pseudomonas aeruginosa) of 32 µg/mL (≈ 57.2 µM), an MIC (Escherichia coli) of over 64 µg/mL and an MIC [1] of 4 µg/mL (≈ 7.15 µM). For the same compound, the hemolysis at 500 ug/ml [2] was 0%, the hemolysis at 250 ug/ml [3] was 0% and the hemolysis at 2000 ug/ml [4] was 6%. The MIC (Candida albicans) was 4 µg/mL (≈ 7.15 µM), the MIC (Aspergillus niger) was 4 µg/mL (≈ 7.15 µM) and the MIC (Cryptococcus neoformans) was 8 µg/mL (≈ 14.3 µM). It also gave an MIC [5] of 8 µg/mL (≈ 14.3 µM), an MIC (Bacillus subtilis) of 4 µg/mL (≈ 7.15 µM) and an MIC (Staphylococcus aureus) of 32 µg/mL (≈ 57.2 µM). For the same compound, the MIC (Saccharomyces cerevisiae) was 16 µg/mL (≈ 28.6 µM), the hemolysis at 4000 ug/ml [6] was 9% and the hemolysis at 1000 ug/ml [7] was 3%. It also gave an MIC (Aspergillus flavus) of 8 µg/mL (≈ 14.3 µM).
`O=C1O[C@H]2Cc3ccccc3[C@H]2NC(=O)c2cccc(c2)C(=O)N[C@@H]2c3ccccc3C[C@@H]2OC(=O)C2=CC=C1S2` showed an MIC (Pseudomonas aeruginosa) of over 64 µg/mL, an MIC (Escherichia coli) of 16 µg/mL (≈ 28.3 µM) and an MIC [1] of 1 µg/mL (≈ 1.77 µM). The hemolysis at 500 ug/ml [2] was 0%, the hemolysis at 250 ug/ml [3] was 0% and the hemolysis at 2000 ug/ml [4] was 4%. The MIC (Candida albicans) was 1 µg/mL (≈ 1.77 µM), the MIC (Aspergillus niger) was 32 µg/mL (≈ 56.7 µM) and the MIC (Cryptococcus neoformans) was 4 µg/mL (≈ 7.08 µM). For the same compound, the MIC [5] was 4 µg/mL (≈ 7.08 µM), the MIC (Bacillus subtilis) was over 64 µg/mL and the MIC (Staphylococcus aureus) was 16 µg/mL (≈ 28.3 µM). For the same compound, the MIC (Saccharomyces cerevisiae) was 16 µg/mL (≈ 28.3 µM), the hemolysis at 4000 ug/ml [6] was 9% and the hemolysis at 1000 ug/ml [7] was 1%. For the same compound, the MIC (Aspergillus flavus) was 8 µg/mL (≈ 14.2 µM).
For `O=C1N[C@@H]2c3ccccc3C[C@@H]2OC(=O)c2cccc(n2)C(=O)O[C@H]2Cc3ccccc3[C@H]2NC(=O)c2cccc1n2`, the MIC (Pseudomonas aeruginosa) was over 64 µg/mL, the MIC (Escherichia coli) was 32 µg/mL (≈ 57.1 µM) and the MIC [1] was 8 µg/mL (≈ 14.3 µM). For the same compound, the hemolysis at 500 ug/ml [2] was 0%, the hemolysis at 250 ug/ml [3] was 0% and the hemolysis at 2000 ug/ml [4] was 1%. It also gave an MIC (Candida albicans) of 1 µg/mL (≈ 1.78 µM), an MIC (Aspergillus niger) of 4 µg/mL (≈ 7.14 µM) and an MIC (Cryptococcus neoformans) of 16 µg/mL (≈ 28.5 µM). The MIC [5] was 16 µg/mL (≈ 28.5 µM), the MIC (Bacillus subtilis) was 8 µg/mL (≈ 14.3 µM) and the MIC (Staphylococcus aureus) was 4 µg/mL (≈ 7.14 µM). The MIC (Saccharomyces cerevisiae) was 64 µg/mL (≈ 114 µM), the hemolysis at 4000 ug/ml [6] was 2% and the hemolysis at 1000 ug/ml [7] was 0%. The MIC (Aspergillus flavus) was over 64 µg/mL.
